Test results reported in patent publication US5272143A, “6-oxoazepinoindole compounds, and pharmaceutical compositions containing them” (Kali-Chemie Pharma GmbH, priority 1991, dated 1993).
Where a name gives a salt, the structure may show the parent alone.

Experiments:
Mouse = tested on: Mouse; design: species or system Male mice; details: in vivo, po, 4320 min
Description: 1. Determination of the minimum toxic dose.
Male mice of 20-25 g weight are administered maximum doses of 300 mg/kg of the test substance p.o. The animals were carefully observed for 3 hours for symptoms of toxicity. Over a period of 72 hours after administration, all symptoms and cases of death are additionally recorded. Concomitant symptoms are likewise observed and recorded. If death or strong toxic symptoms are observed, further mice are administered increasingly lower doses until toxic symptoms no longer occur. The lowest dose which causes death or strong toxic symptoms is given in the following Table A as the minimum toxic dose. The example numbers given in Table A relate to the subsequent preparation examples.

stomach motility = assay: Determination of effect on stomach motility in anaesthetised rats; assay type: in vivo, rats of the SIV 50 strain; details: rat, 100 μmole/kg i.p.; for change in vivo at 100 µmol/kg: ip, read-out: Maximum Amplitude Increase (increase in % of control amplitude)
Description: 2. Determination of effect on stomach motility in anaesthetised rats.
For the tests, groups of 5-6 fasting rats of the SIV 50 strain having a body weight of 220-290 g were used in each test which had been anaesthetised with a ketamine/xylazine mixture. The animals received an initial dose of 1 ml/kg of a solution of 50 mg/ml of ketamine and 10 mg/ml of xylazine administered i.p., and the anaesthetic level was maintained by a continuous intraperitoneal infusion of the same solution at an infusion rate of 1 ml/kg/h. The animals were tracheotomised and laparotomised. After applying a pylorus ligature, a stomach tube was inserted into the stomach and connected at the other end by means of a three-way tap to a calibrated pressure transducer (Statham Element P 23 ID). A corresponding tube was inserted rectally 8-9 cm into the colon and likewise connected in the same manner to a calibrated pressure transducer of the same type. The stomachs of the animals were then filled with 2 ml of water via the tube. After a stabilisation phase of 40 min, the pressure variations in the stomach and colon were measured over a test period of 2 hours and 20 minutes, and the amplitudes produced by the phasic gastric motility were recorded by means of a Watanabe multirecorder (MC 6621). The geometric mean values of the amplitudes during the first 20 min were determined for the individual animals and used as control amplitude values. After the first 20 min, the test substances were administered i.p. The maximum increase in amplitude (=mean value of the 20 minute period in which the highest increase in amplitude occurs) caused by the test substances was determined in % increase of the control amplitude values determined before administration of the test substances, and the mean value for the animal group is given in the following Table A. In addition, the maximum increase in the mean gastric tone caused by the test substances during the test period compared with the mean gastric tone existing before administration of the test substances was recorded. This increase in gastric tone is given in Table A in cm of H2 O (mean value of the animal group). In the colon, the test substances cause amplitude damping.

5-HT1-like receptors = assay: Serotonin-agonistic contractions in segments of the isolated basilar artery of the pig (in vitro antimigraine activity); assay type: cell-based; details: for Maximum Contraction Produced by Test Substance Relative to Maximum Contraction Produced by Serotonin = 1 / relative potency calculated as pD2 of the test substance relative to the pD2 of serotonin determined on the same piece of artery / pD2 = neg. log of Concentration Which Produces 50% of Maximum Contraction: porcine basilar artery, in vitro; for pD2 = neg. log of Concentration Which Produces 50% of Maximum Contraction: concentrations in mol/l
Description: 3. Investigation of Properties Indicating Antimigraine Activity of Test Substance in vitro. Migraine pains are associated with excessive dilation of the cranial vascular system. […] This property of the test substances can be used as a basis for predicting anti-migraine activity. The serotoninagonistic activity of the substances on 5-HT1 -like receptors can be determined in vitro in isolated organ strips from the basilar artery of a pig. […] Such a contraction is also produced by the test substances and is a good index of the antimigraine activity of the substances. The tests are carried out according to the method described by van Charldorp et al. (Naunyn-Schmiedeb. Arch. Pharmacol. supp. to volume 341, R89, 1990 and Eur. J. Pharmacol. 183, 1106-1107, 1990). Experimental description of the in vitro determination of the effect inducing serotonin-agonistic contractions in segments of the isolated basilar artery of the pig. For the experiment, helical segments of the basilar artery of pigs were used which were isolated from pig brains supplied by a slaughterhouse. Each strip was fixed in an organ bath consisting of 10 ml of a modified Tyrode solution such that the tissue was under a tension of 10 mN. […] The solution was modified by adding 10^-8 mol/l of indomethacin, 10^-7 mol/l of atropine and 10^-7 mol/l of propanolol and adjusted to pH=7.4. The bath was aerated with a mixture of 95% O2 and 5% CO2. After an equilibration phase of 1 hour a contraction of the tissue was produced twice, in each case by addition of serotonin at a concentration of 10^-5 mol/l and the preparation was subsequently washed out. The contraction effect was then measured with increasing serotonin concentration and a cumulative concentration effect curve for serotonin was drawn up. A cumulative concentration effect curve was drawn up for the test substance on the same preparation (after washing out again). In the following Table B, the maximum contraction caused by the test substances in relationship to the maximum contraction produced by serotonin, and the negative logarithm of that concentration of the test substance which produces 50% of the maximum contraction which can be produced by this test substance (=pD2), and the relative potency calculated as pD2 of the test substance relative to the pD2 of serotonin determined on the same piece of artery are given.

With `CN1CCN(CC2Cc3c[nH]c4cccc(c34)C(=O)N2)CC1` (centres unmarked) [Example 25] the “Minimum Toxic Dose” value (Mouse) was 300 mg/kg and the change in vivo at 100 µmol/kg (stomach motility) was 206%.

With `NCCC1Cc2c[nH]c3cccc(c23)C(=O)N1` (centres unmarked) [Example 8, 4-(2-Aminoethyl)-3,4,5,6-tetrahydro-6-oxo-1H-azepino[5,4,3-cd]indole] the “Minimum Toxic Dose” value (Mouse) was > 300 mg/kg and the change in vivo at 100 µmol/kg (stomach motility) was 569%.

For `NC[C@@H]1CNC(=O)c2cccc3[nH]cc1c23` [Example 1a, 3R(+)-3-Aminomethyl-3,4,5,6-tetrahydro-6-oxo-1H-azepino[5,4,3-cd]indole], the “Maximum Contraction Produced by Test Substance Relative to Maximum Contraction Produced by Serotonin = 1” value (5-HT1-like receptors) was 1.0, the “relative potency calculated as pD2 of the test substance relative to the pD2 of serotonin determined on the same piece of artery” value (from here on “relative potency calculated as pD2”) (5-HT1-like receptors) was 0.172 and the “pD2 = neg. log of Concentration Which Produces 50% of Maximum Contraction” value (5-HT1-like receptors) was 6.7.

`CNC[C@@H]1CNC(=O)c2cccc3[nH]cc1c23` [Example 4a, 3R(+)-3-methylaminomethyl-3,4,5,6-tetrahydro-6-oxo-1H-azepino[5,4,3-cd]indole hydrochloride] was tested, and the “Maximum Contraction Produced by Test Substance Relative to Maximum Contraction Produced by Serotonin = 1” value (5-HT1-like receptors) was 0.6, the “relative potency calculated as pD2” value (5-HT1-like receptors) was 0.354 and the “pD2 = neg. log of Concentration Which Produces 50% of Maximum Contraction” value (5-HT1-like receptors) was 7.0.

`COc1ccc(CCn2cc3c4c(cccc42)C(=O)NCC3CN)cc1OC` (centres unmarked) [Example 36] was tested, and the “Minimum Toxic Dose” value (Mouse) was > 300 mg/kg, the change in vivo at 100 µmol/kg (stomach motility) was 351% and the “Gastric Tone Increase” value (stomach motility) was 11.5 cm H2O.

`O=C1NC(CN2CCN(c3ccccc3)CC2)Cc2c[nH]c3cccc1c23` (centres unmarked) [Example 17, 4-(4-Phenylpiperazin-1-ylmethyl)-3,4,5,6-tetrahydro-6-oxo-1H-azepino[5,4,3-cd]indole] was tested, and the “Minimum Toxic Dose” value (Mouse) was > 300 mg/kg and the change in vivo at 100 µmol/kg (stomach motility) was 293%.

With `CC(C)(C)NCC1Cc2c[nH]c3cccc(c23)C(=O)N1` (centres unmarked) [Example 31] the “Minimum Toxic Dose” value (Mouse) was > 300 mg/kg and the change in vivo at 100 µmol/kg (stomach motility) was 928%.

`CCCN(CCC)CC1CNC(=O)c2cccc3[nH]cc1c23` (centres unmarked) [Example 40] was tested, and the “Minimum Toxic Dose” value (Mouse) was > 300 mg/kg, the change in vivo at 100 µmol/kg (stomach motility) was 997% and the “Gastric Tone Increase” value (stomach motility) was 6.5 cm H2O.

With `COCN1CC(CN)c2c[nH]c3cccc(c23)C1=O` (centres unmarked) [Example 12, 3-aminomethyl-5-methoxymethyl-3,4,5,6-tetrahydro-6-oxo-1H-azepino[5,4,3-cd]indole] the “Maximum Contraction Produced by Test Substance Relative to Maximum Contraction Produced by Serotonin = 1” value (5-HT1-like receptors) was 0.7, the “relative potency calculated as pD2” value (5-HT1-like receptors) was 0.050 and the “pD2 = neg. log of Concentration Which Produces 50% of Maximum Contraction” value (5-HT1-like receptors) was 6.0.

For `O=C1NCC(CN2CCCCC2)c2c[nH]c3cccc1c23` (centres unmarked) [Example 14, 3-(1-Piperidinylmethyl)-3,4,5,6-tetrahydro-6-oxo-1H-azepino[5,4,3-cd]indole], the “Minimum Toxic Dose” value (Mouse) was > 300 mg/kg and the “Gastric Tone Increase” value (stomach motility) was 3.0 cm H2O.

`CCN(CC)CC1CNC(=O)c2cccc3[nH]cc1c23` (centres unmarked) [Example 5b, 3-Diethylaminomethyl-3,4,5,6-tetrahydro-6-oxo-1H-azepino[5,4,3-cd]indole] was tested, and the “Minimum Toxic Dose” value (Mouse) was > 300 mg/kg, the change in vivo at 100 µmol/kg (stomach motility) was 449% and the “Gastric Tone Increase” value (stomach motility) was 3.8 cm H2O.

With `O=C1NCC(CN2CCCC2)c2c[nH]c3cccc1c23` (centres unmarked) [Example 37] the “Minimum Toxic Dose” value (Mouse) was > 300 mg/kg, the change in vivo at 100 µmol/kg (stomach motility) was 950% and the “Gastric Tone Increase” value (stomach motility) was 4.0 cm H2O.

In the case of `Cc1ccc(CNCC2CNC(=O)c3cccc4[nH]cc2c34)cc1` (centres unmarked) [Example 24], the “Minimum Toxic Dose” value (Mouse) is reported as > 300 mg/kg and the change in vivo at 100 µmol/kg (stomach motility) is reported as 195%.

For `O=C1NC(CNC2CC2)Cc2c[nH]c3cccc1c23` (centres unmarked) [Example 45], the “Minimum Toxic Dose” value (Mouse) was > 300 mg/kg, the change in vivo at 100 µmol/kg (stomach motility) was 580% and the “Gastric Tone Increase” value (stomach motility) was 3.5 cm H2O.

For `CCCCNCC1CNC(=O)c2cccc3[nH]cc1c23` (centres unmarked) [Example 41], the “Minimum Toxic Dose” value (Mouse) was > 300 mg/kg, the change in vivo at 100 µmol/kg (stomach motility) was 234% and the “Gastric Tone Increase” value (stomach motility) was 2.7 cm H2O.

For `CCNCC1CNC(=O)c2cccc3[nH]cc1c23` (centres unmarked) [Example 5a, 3-Ethylaminomethyl-3,4,5,6-tetrahydro-6-oxo-1H-azepino[5,4,3-cd]indole], the “Minimum Toxic Dose” value (Mouse) was > 300 mg/kg and the “Gastric Tone Increase” value (stomach motility) was 9.5 cm H2O.

In the case of `O=C1NC(CNC2CCCCC2)Cc2c[nH]c3cccc1c23` (centres unmarked) [Example 28], the “Minimum Toxic Dose” value (Mouse) is reported as > 300 mg/kg, the change in vivo at 100 µmol/kg (stomach motility) is reported as 17% and the “Gastric Tone Increase” value (stomach motility) is reported as 0.5 cm H2O.

For `NCC1CNC(=O)c2cccc3c2c1cn3Cc1ccccc1` (centres unmarked) [Example 10, 1-Benzyl-3-aminomethyl-3,4,5,6-tetrahydro-6-oxo-1H-azepino[5,4,3-cd]indole], the “Minimum Toxic Dose” value (Mouse) was > 300 mg/kg, the change in vivo at 100 µmol/kg (stomach motility) was 663% and the “Gastric Tone Increase” value (stomach motility) was 10.5 cm H2O.

For `CN(C)C=NCC1CNC(=O)c2cccc3[nH]cc1c23` (centres unmarked) [Example 15, 3-(Dimethylaminomethylideneaminomethyl)-3,4,5,6-tetrahydro-6-oxo-1H-azepino[5,4,3-cd]indole], the “Minimum Toxic Dose” value (Mouse) was > 300 mg/kg, the change in vivo at 100 µmol/kg (stomach motility) was 308% and the “Gastric Tone Increase” value (stomach motility) was 3.1 cm H2O.

For `O=C1NC(CN2CCOCC2)Cc2c[nH]c3cccc1c23` (centres unmarked) [Example 29], the “Minimum Toxic Dose” value (Mouse) was > 300 mg/kg and the change in vivo at 100 µmol/kg (stomach motility) was 154%.

For `CC(C)NCC1CNC(=O)c2cccc3[nH]cc1c23` (centres unmarked) [Example 6, 3-Isopropylaminomethyl-3,4,5,6-tetrahydro-6-oxo-1H-azepino[5,4,3-cd]indole], the “Minimum Toxic Dose” value (Mouse) was > 300 mg/kg, the change in vivo at 100 µmol/kg (stomach motility) was 609% and the “Gastric Tone Increase” value (stomach motility) was 15.4 cm H2O.

For `COc1ccc(CCNCC2CNC(=O)c3cccc4[nH]cc2c34)cc1OC` (centres unmarked) [Example 32], the “Minimum Toxic Dose” value (Mouse) was > 300 mg/kg and the change in vivo at 100 µmol/kg (stomach motility) was 922%.

`CC(C)n1cc2c3c(cccc31)C(=O)NCC2CN` (centres unmarked) [Example 34] was tested, and the change in vivo at 100 µmol/kg (stomach motility) was 467%.

With `CCCNCC1CNC(=O)c2cccc3[nH]cc1c23` (centres unmarked) [Example 38] the “Minimum Toxic Dose” value (Mouse) was > 300 mg/kg, the change in vivo at 100 µmol/kg (stomach motility) was 559% and the “Gastric Tone Increase” value (stomach motility) was 12.4 cm H2O.

For `NCCc1c[nH]c2ccc(O)cc12` [Serotonin, reference compound], the “action on 5-HT1-like receptors in the basilar artery (contraction)” value (5-HT1-like receptors; isolated basilar artery) was “concentration -dependent contraction”.

For `CN(C)CC1CNC(=O)c2cccc3[nH]cc1c23` (centres unmarked) [Example 39], the “Minimum Toxic Dose” value (Mouse) was > 300 mg/kg, the change in vivo at 100 µmol/kg (stomach motility) was 569% and the “Gastric Tone Increase” value (stomach motility) was 1.8 cm H2O.

`O=C1NCC(CNCC2CC2)c2c[nH]c3cccc1c23` (centres unmarked) [Example 47] was tested, and the “Gastric Tone Increase” value (stomach motility) was 6.7 cm H2O.

For `O=C1NCC(CNCc2ccccc2)c2c[nH]c3cccc1c23` (centres unmarked) [Example 2, 3-Benzylaminomethyl-3,4,5,6-tetrahydro-6-oxo-1H-azepino[5,4,3-cd]indole], the “Minimum Toxic Dose” value (Mouse) was > 300 mg/kg and the change in vivo at 100 µmol/kg (stomach motility) was 239%.

In the case of `NCC1CNC(=O)c2cccc3c2c1cn3CCCc1ccccc1` (centres unmarked) [Example 13, 3-Aminomethyl-1-(3-phenylpropyl)-3,4,5,6-tetrahydro-6-oxo-1H-azepino[5,4,3-cd]indole], the “Minimum Toxic Dose” value (Mouse) is reported as > 300 mg/kg, the change in vivo at 100 µmol/kg (stomach motility) is reported as 332% and the “Gastric Tone Increase” value (stomach motility) is reported as 7.2 cm H2O.
